Experimental data: PubChem BioAssay (NCI)
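Each compound was tested at five concentrations against cells in 96-well plates for 48 hours. TGI is the concentration that stops growth completely.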

Tests used:
Assay in all cases: NCI tumour cell line growth inhibition, 48 h
[1] = test system: 786-0 renal
[2] = test system: M14 melanoma
[3] = test system: MDA-MB-231 breast
[4] = test system: NCI/ADR-RES ovarian
[5] = test system: SW-620 colon
[6] = test system: RPMI-8226 leukemia
[7] = test system: LOX IMVI melanoma
[8] = test system: K-562 leukemia
[9] = test system: COLO 205 colon
[10] = test system: ACHN renal
[11] = test system: PC-3 prostate
[12] = test system: OVCAR-3 ovarian
[13] = test system: HCT-116 colon
[14] = test system: DU-145 prostate
[15] = test system: SNB-19 CNS
[16] = test system: CCRF-CEM leukemia
[17] = test system: SF-295 CNS
[18] = test system: HOP-92 NSCLC
[19] = test system: HCC-2998 colon
[20] = test system: SN12C renal

N#Cc1c(Cl)cccc1Oc1ccc(S(=O)(=O)/N=C(\NO)Nc2ccc(Cl)cc2)cc1
TGI [1]: 26.5 µM
TGI [2]: 29.2 µM
TGI [3]: 37.4 µM
TGI [4]: 48 µM
TGI [5]: 34.8 µM
TGI [6]: 71.2 µM
TGI [7]: 32 µM
TGI [8]: 53.6 µM
TGI [9]: 33.6 µM
TGI [10]: 29.1 µM
TGI [11]: 30.6 µM
TGI [12]: 29.2 µM
TGI [13]: 27.2 µM
TGI [14]: 32.9 µM
TGI [15]: 30 µM
TGI [16]: 43.9 µM
TGI [17]: 32.3 µM
TGI [18]: 24.6 µM
TGI [19]: 29 µM
TGI [20]: 29.4 µM

COC1/C=C/C(C)C(C(C)C(OC)C(C)CCC(=O)C(C)C(CC(=O)O)OC)OC(=O)/C=C/C=C(\C)CC(OC)C(OC)C2=CC(=O)O[C@@H](C(C)C(OC)CC(OC)/C=C/C(C)C(O)C1)[C@H]2O (stereo not given in full)
TGI [1]: 0.12 µM
TGI [2]: 0.0739 µM
TGI [3]: 0.754 µM
TGI [4]: 0.47 µM
TGI [5]: > 1.07 µM
TGI [6]: > 1.07 µM
TGI [7]: > 1.07 µM
TGI [8]: > 1.07 µM
TGI [9]: > 1.07 µM
TGI [10]: > 1.07 µM
TGI [11]: > 1.07 µM
TGI [12]: > 1.07 µM
TGI [13]: 0.227 µM
TGI [14]: > 1.07 µM
TGI [15]: > 1.07 µM
TGI [16]: > 1.07 µM
TGI [17]: 0.261 µM
TGI [18]: 0.0917 µM
TGI [19]: > 1.07 µM
TGI [20]: > 1.07 µM

CCCCCCCCCCCCOCCCCCCCCC/C=C/c1ccc2c(c1)OCCOCCOCCOCCO2
TGI [1]: 26.6 µM
TGI [2]: 88.9 µM
TGI [3]: 37.7 µM
TGI [4]: 34.8 µM
TGI [5]: > 100 µM
TGI [6]: 64.5 µM
TGI [7]: 38.9 µM
TGI [8]: > 100 µM
TGI [9]: 35.2 µM
TGI [10]: 43.1 µM
TGI [11]: 39.9 µM
TGI [12]: 40.6 µM
TGI [13]: 29.5 µM
TGI [14]: > 100 µM
TGI [15]: 77.6 µM
TGI [16]: > 100 µM
TGI [17]: 34.2 µM
TGI [18]: 26.5 µM
TGI [19]: 44.7 µM
TGI [20]: 50.8 µM

Cc1nc(C)c(N2CCN(C(=O)NC(CCC(=O)O)C(=O)O)CC2)c(=O)[nH]1 (stereo not given)
TGI [1]: > 100 µM
TGI [2]: > 100 µM
TGI [3]: > 100 µM
TGI [4]: > 100 µM
TGI [5]: > 100 µM
TGI [6]: > 100 µM
TGI [7]: > 100 µM
TGI [8]: > 100 µM
TGI [9]: > 100 µM
TGI [10]: > 100 µM
TGI [11]: > 100 µM
TGI [12]: > 100 µM
TGI [13]: > 100 µM
TGI [14]: > 100 µM
TGI [15]: > 100 µM
TGI [16]: > 100 µM
TGI [17]: > 100 µM
TGI [18]: > 100 µM
TGI [19]: > 100 µM
TGI [20]: > 100 µM

Cc1cccc(/C=N/NC(=S)NC2CCCCC2)n1
TGI [1]: 98.3 µM
TGI [2]: 61.6 µM
TGI [3]: > 100 µM
TGI [4]: > 67.1 µM
TGI [5]: > 100 µM
TGI [6]: 45.4 µM
TGI [7]: 99 µM
TGI [8]: > 54.7 µM
TGI [9]: > 100 µM
TGI [10]: > 85.2 µM
TGI [11]: > 100 µM
TGI [12]: > 29.3 µM
TGI [13]: 19.4 µM
TGI [14]: > 100 µM
TGI [15]: > 100 µM
TGI [16]: > 21.5 µM
TGI [17]: > 100 µM
TGI [18]: 61.8 µM
TGI [19]: > 89.5 µM
TGI [20]: > 100 µM
